# Read-outs that look alike come from different tables or passages of the source.
# Columns and labels:
# VIOAR [1] = assay: Greenhouse trial, PE soil application vs incorporation into the soil (Table 1a); assay type: in vivo, Viola arvensis; details: (A) 90, (B) 1200 g of AS/ha
# Experimental: (§1) In the standard design of the test, seeds of various broad-leaved weed and weed grass biotypes (origins) were sown in a 8-13 cm diameter pot filled with natural soil of a standard field soil (loamy silt; non-sterile) and covered with a covering soil layer of about 1 cm. The pots were then cultivated in a greenhouse (12-16 h of light, temperature day 20-22° C., night 15-18° C.) until the time of application. The pots were treated on a laboratory track sprayer with spray liquors comprising the compositions according to the invention, mixtures of the prior art or components used individually. Application of the active compounds or active compound combinations formulated as WG, WP, EC or otherwise was carried out at the appropriate growth stages of the plants. The application rate for the spray application was 100-600 l of water/ha. After the treatment, the plants were returned to the greenhouses.
# (§2) About 3 weeks after the application, the soil action or/and foliar action was assessed visually according to a scale of 0-100% in comparison to an untreated comparative group: 0%=no noticeable effect compared to the untreated comparative group; 100%=full effect compared to the untreated comparative group.
# (§3) (notes: the term “seeds” also includes vegetative propagation forms such as, for example, rhizome pieces; abbreviations used: h light=hours of illumination, g of AS/ha=gram of active substance per hectare, l/ha=liter per hectare, S=sensitive, R=resistant) • 1. Pre-emergence action against weeds: seeds of various broad-leaved weed and weed grass biotypes (origins) were sown in a 8-13 cm diameter pot filled with natural soil of a standard field soil (loamy silt; non-sterile) and covered with a covering soil layer of about 1 cm. The pots were then cultivated in a greenhouse (12-16 h of light, temperature day 20-22° C., night 15-18° C.) until the time of application. The pots were treated at the BBCH stage 00-10 of the seeds/plants on a laboratory track sprayer with spray liquors comprising the compositions according to the invention, mixtures or components used individually, as WG, WP, EC or other formulations. The application rate for the spray application was 100-600 l of water/ha. After the treatment, the plants were returned to the greenhouses and, when required, treated with fertilizer and watered. • 2. Post-emergence action against weeds: seeds of various broad-leaved weed and weed grass biotypes (origins) were sown in a 8-13 cm diameter pot filled with natural soil of a standard field soil (loamy silt; non-sterile) and covered with a covering soil layer of about 1 cm. The pots were then cultivated in a greenhouse (12-16 h of light, temperature day 20-22° C., night 15-18° C.) until the time of application. […]
# STEME [2] = assay: Greenhouse trial, PO application (Table 2); assay type: in vivo, Stellaria media; details: (A) 120, (B) 1600 g of AS/ha
# Experimental: as §1
# (§4) About 3 weeks after the application, the soil action or/and foliar action was assessed visually according to a scale of 0-100% in comparison to an untreated comparative group: 0%=no noticeable effect compared to the untreated comparative group; 100%=full effect compared to the untreated comparative group. […]
# LOLPE [3] = assay: Greenhouse trial, PE application with different soil types (Table 4); assay type: in vivo, Lolium perenne; details: (A) 120, (B) 1200 g of AS/ha
# Experimental: as §1, §2
# (§5) (notes: the term “seeds” also includes vegetative propagation forms such as, for example, rhizome pieces; abbreviations used: h light=hours of illumination, g of AS/ha=gram of active substance per hectare, l/ha=liter per hectare, S=sensitive, R=resistant) • 1. Pre-emergence action against weeds: seeds of various broad-leaved weed and weed grass biotypes (origins) were sown in a 8-13 cm diameter pot filled with natural soil of a standard field soil (loamy silt; non-sterile) and covered with a covering soil layer of about 1 cm. The pots were then cultivated in a greenhouse (12-16 h of light, temperature day 20-22° C., night 15-18° C.) until the time of application. The pots were treated at the BBCH stage 00-10 of the seeds/plants on a laboratory track sprayer with spray liquors comprising the compositions according to the invention, mixtures or components used individually, as WG, WP, EC or other formulations. The application rate for the spray application was 100-600 l of water/ha. After the treatment, the plants were returned to the greenhouses and, when required, treated with fertilizer and watered. • 2. Post-emergence action against weeds: seeds of various broad-leaved weed and weed grass biotypes (origins) were sown in a 8-13 cm diameter pot filled with natural soil of a standard field soil (loamy silt; non-sterile) and covered with a covering soil layer of about 1 cm. The pots were then cultivated in a greenhouse (12-16 h of light, temperature day 20-22° C., night 15-18° C.) until the time of application. The pots were treated at various BBCH stages between 11-25 of the seeds/plants, i.e. generally between two to three weeks after the start of the cultivation, on a laboratory track sprayer with spray liquors comprising the compositions according to the invention, mixtures or components used individually, as WG, WP, EC or other formulations. The application rate for the spray application was 100-600 l of water/ha. After the treatment, the plants were returned to the greenhouses and, when required, treated with fertilizer and watered. • 3. Pre-emergence action against weeds with and without incorporation of active compound: seeds of various broad-leaved weed and weed grass biotypes (origins) were sown in a 8-13 cm diameter pot filled with natural soil of a standard field soil (loamy silt; non-sterile). […]
# LOLSS = assay: Greenhouse trial, PE application on sensitive and resistant biotypes (Table 5); assay type: in vivo, Lolium species; details: for activity, LOLSS resistant: resistant biotype; for activity, LOLSS resistant / activity, LOLSS Sensitive: (A) 90, (B) 1200, iodosulfuron 10 g of AS/ha; for activity, LOLSS Sensitive: sensitive biotype
# Experimental: as §1, §2, §5
# VIOAR [4] = assay: Greenhouse trial, PO application (Table 2); assay type: in vivo, Viola arvensis; details: (A) 120, (B) 1600 g of AS/ha
# Experimental: as §1, §4
# AVEFA = assay: Greenhouse trial, PE application vs application 7 days prior to sowing (Table 3); assay type: in vivo, Avena fatua; details: (A) 90, (B) 1200 g of AS/ha
# Experimental: as §1, §2, §3
# VIOAR [5] = assay: Greenhouse trial, different sowing depths (Table 6); assay type: in vivo, Viola arvensis; details: head prints PO application, (A) 90, (B) 1200 g of AS/ha; for activity, VIOAR 5 mm: sowing depth 5 mm; for activity, VIOAR 20 mm: sowing depth 20 mm
# Experimental: as §1, §2, §3
# TRZAS [6] = assay: Greenhouse trial, PE application with different soil types, crop (Table 4); details: Triticum aestivum (summer wheat), in vivo
# Experimental: as §1, §2, §5
# POOAN = assay: Greenhouse trial, PE application vs application 7 days prior to sowing (Table 3); assay type: in vivo, Poa annua; details: (A) 90, (B) 1200 g of AS/ha
# Experimental: as §1, §2, §3
# TRZAS [7] = assay: Greenhouse trial, application 7 days prior to sowing, crop (Table 3); details: Triticum aestivum (summer wheat), in vivo
# Experimental: as §1, §4
# LOLPE [8] = assay: Greenhouse trial, PE application vs application 7 days prior to sowing (Table 3); assay type: in vivo, Lolium perenne; details: (A) 90, (B) 1200 g of AS/ha
# Experimental: as §1, §2, §3
# APESV = assay: Greenhouse trial, different sowing depths (Table 6); assay type: in vivo; details: PE application, (A) 90, (B) 1200 g of AS/ha; for activity, APESV 5 mm: sowing depth 5 mm; for activity, APESV 20 mm: sowing depth 20 mm
# Experimental: as §1, §2, §3
# HORVS = assay: Greenhouse trial, selective PO application (Table 2); details: Hordeum vulgare (summer barley), in vivo
# Experimental: as §1, §4
# TRZAW = assay: Greenhouse trial, PE application, crop (Table 3); details: Triticum aestivum (winter wheat), in vivo
# Experimental: as §1, §4
# LOLPE [9] = assay: Greenhouse trial, PO application (Table 2); assay type: in vivo, Lolium perenne; details: (A) 120, (B) 1600 g of AS/ha
# Experimental: as §1, §4
# PAPRH = assay: Greenhouse trial, PE application on sensitive and resistant biotypes (Table 5); assay type: in vivo; details: for activity, PAPRH resistant: resistant biotype; for activity, PAPRH resistant / activity, PAPRH Sensitive: (A) 90, (B) 1200, iodosulfuron 10 g of AS/ha; for activity, PAPRH Sensitive: sensitive biotype
# Experimental: as §1, §2, §5
# MATCH = assay: Greenhouse trial, different sowing depths (Table 6); assay type: in vivo, Matricaria chamomilla; details: head prints PO application, (A) 90, (B) 1200 g of AS/ha; for activity, MATCH 5 mm: sowing depth 5 mm; for activity, MATCH 20 mm: sowing depth 20 mm
# Experimental: as §1, §2, §3
# STEME [10] = assay: as above; assay type: in vivo, Stellaria media; details: PE application, (A) 90, (B) 1200 g of AS/ha; for activity, STEME 5 mm: sowing depth 5 mm; for activity, STEME 20 mm: sowing depth 20 mm
# Experimental: as §1, §2, §3
# [11] = Application 7 days prior to sowing
Compound,"activity, VIOAR (VIOAR [1]; Incorporation)","activity, VIOAR (VIOAR [1]; PE application)","activity, STEME (STEME [2])","Difference of the soil types Δ^D = A: activity IU/EC73 soil − B: activity IU soil, LOLPE (LOLPE [3])","activity, LOLPE IU soil (LOLPE [3])","activity, LOLPE IU/EC73 soil (LOLPE [3])","Difference resistant to sensitive Δ^D, LOLSS (LOLSS)","activity, LOLSS resistant (LOLSS)","activity, LOLSS Sensitive (LOLSS)","activity, VIOAR (VIOAR [4])","activity, AVEFA (AVEFA; [11])","activity, AVEFA (AVEFA; PE application)","activity, VIOAR 5 mm (VIOAR [5])","activity, VIOAR 20 mm (VIOAR [5])","Difference of the soil types Δ^D = A: activity IU/EC73 soil − B: activity IU soil, TRZAS (TRZAS [6])","activity, TRZAS IU soil (TRZAS [6])","activity, TRZAS IU/EC73 soil (TRZAS [6])","Difference resistant to sensitive Δ^D, PAPRH (PAPRH)","activity, PAPRH resistant (PAPRH)","activity, PAPRH Sensitive (PAPRH)",further results
"CC(C)N(C(=O)COc1nnc(C(F)(F)F)s1)c1ccc(F)cc1 [(A) flufenacet, N-(4-fluorophenyl)-N-(1-methylethyl)-2-[[5-(trifluoromethyl)-1,3,4-thiadiazol-2-yl]oxy]acetamide]",0%,0%,30%,Δ^D −22%,97%,75%,Δ^D −75%,10%,85%,40%,70%,80%,50%,10%,Δ^D −33%,33%,0%,Δ^D −15%,45%,60%,"activity, POOAN (POOAN; [11]): 95%; activity, POOAN (POOAN; PE application): 65%; activity, TRZAS (TRZAS [7]): 60%; activity, LOLPE (LOLPE [8]; [11]): 80%; activity, LOLPE (LOLPE [8]; PE application): 90%; activity, APESV 5 mm (APESV): 65%; activity, APESV 20 mm (APESV): 70%; activity, HORVS (HORVS): 40%; activity, TRZAW (TRZAW): 30%; activity, LOLPE (LOLPE [9]): 65%; activity, MATCH 5 mm (MATCH): 30%; activity, MATCH 20 mm (MATCH): 30%; activity, STEME 5 mm (STEME [10]): 0%; activity, STEME 20 mm (STEME [10]): 10%"
"CCCN(CCC)C(=O)SCc1ccccc1 [(B) prosulfocarb, S-(phenylmethyl) dipropylcarbamothioate]",0%,20%,30%,Δ^D −33%,33%,0%,Δ^D −20%,65%,85%,50%,10%,80%,60%,20%,Δ^D −5%,5%,0%,Δ^D +20%,70%,50%,"activity, POOAN (POOAN; [11]): 20%; activity, POOAN (POOAN; PE application): 35%; activity, TRZAS (TRZAS [7]): 10%; activity, LOLPE (LOLPE [8]; [11]): 0%; activity, LOLPE (LOLPE [8]; PE application): 80%; activity, APESV 5 mm (APESV): 50%; activity, APESV 20 mm (APESV): 20%; activity, HORVS (HORVS): 30%; activity, TRZAW (TRZAW): 35%; activity, LOLPE (LOLPE [9]): 60%; activity, MATCH 5 mm (MATCH): 0%; activity, MATCH 20 mm (MATCH): 0%; activity, STEME 5 mm (STEME [10]): 60%; activity, STEME 20 mm (STEME [10]): 50%"
COc1nc(C)nc(NC(=O)NS(=O)(=O)c2cc(I)ccc2C(=O)O)n1 [(C)^1 iodosulfuron],,,,,,,Δ^D −48%,50%,98%,,,,,,,,,Δ^D −40%,70%,100%,"Difference resistant to sensitive Δ^D, LOLSS (LOLSS; listed as standard product (C)): −48%"

# Reference: patent US20110152086A1, “Herbicidal Compositions Comprising Flufenacet” (BAYER CROPSCIENCE AG, priority 2009, published 2011)
